The text below walks through data of patent US20040023978A1, “Active salt forms with tyrosine kinase activity” (priority 2002, published 2004).

Usually solubility stands for the concentration that dissolves in the medium under given conditions.

Where two headings read alike, the source gives them in different places.

Data set [1] in a line: Solubility at room temperature (HPLC isocratic method). Type of data set: physicochemical.
A short description of data set [2]: Hygroscopicity, step isotherm at 25° C. Type of data set: physicochemical. To be noted: 90-95% RH.
Procedure: The hygroscopicity of the mesylate salt was determined at 25° C. using a step isotherm program for relative humidities from 0 to 95% RH following drying at 40° C./0%RH for two hours.
The nature of data set [3]: Stability of the crystal form (XRPD, hot-stage XRPD).
Source text: The mesylate salt (Form A) was further studied using hot-stage XRPD. […] The dehydration could also be achieved by suspending the mesylate monohydrate in hot acetonitrile.

As for `CNC(=O)N1CCN(Cc2ccnc(Nc3ncc(C#N)s3)c2)CC1.CS(=O)(=O)O` [mesylate salt (Form A), 1-({2-[(5-cyano-1,3-thiazol-2-yl)amino]pyridin-4-yl}methyl)-4-[(methylamino)carbonyl]piperazin-1-ium methanesulfonate], the solubility in data set [1] (aqueous with cosolvent or surfactant or cyclodextrin, thermodynamic from solid, 10% HP-βCD, pH adjusted with 0.1 N HCl to about pH 3, room temperature, read-out: Solubility) was found to be 27.1 mg/mL; in data set [1] (aqueous with cosolvent or surfactant or cyclodextrin, thermodynamic from solid, 15% HP-βCD, pH adjusted with 0.1 N HCl to about pH 3, room temperature, read-out: Solubility) it was 35.3 mg/mL; in data set [1] (aqueous with cosolvent or surfactant or cyclodextrin, thermodynamic from solid, 20% HP-βCD, pH adjusted with 0.1 N HCl to about pH 3, room temperature, read-out: Solubility), 40.7 mg/mL; in data set [1] (aqueous with cosolvent or surfactant or cyclodextrin, thermodynamic from solid, 25% HP-βCD, pH adjusted with 0.1 N HCl to about pH 3, room temperature, read-out: Solubility), 45 mg/mL; in data set [1] (aqueous with cosolvent or surfactant or cyclodextrin, thermodynamic from solid, 25% PEG/10% EtOH, room temperature, read-out: Solubility) it was 11.6 mg/mL; in data set [1] (aqueous with cosolvent or surfactant or cyclodextrin, thermodynamic from solid, 30% PG/10% EtOH, room temperature, read-out: Solubility), 13.6 mg/mL. The solubility turned out to be 0.98 mg/mL in data set [1] (organic solvent or mixture, thermodynamic from solid, Ethanol, room temperature, read-out: Solubility); 0.64 mg/mL in data set [1] (organic solvent or mixture, thermodynamic from solid, IPA, room temperature, read-out: Solubility); 1.41 mg/mL in data set [1] (organic solvent or mixture, thermodynamic from solid, PEG, room temperature, read-out: Solubility); 30.4 mg/mL in data set [1] (organic solvent or mixture, thermodynamic from solid, PG, room temperature, read-out: Solubility); 6.65 mg/mL in data set [1] (thermodynamic from solid, water, room temperature (Table I), read-out: Solubility); 4.7 mg/mL in data set [1] (water (text b274), read-out: solubility in water).

For the compound “1-({2-[(5-cyano-1,3-thiazol-2-yl)amino]pyridin-. 4-yl}methyl)-4-[(methylamino)carbonyl]piperazin-1-ium methanesulfonate [dehydrated mesylate salt (Form B)]”, the weight gain entry in data set [2] was “about 1.2 % wt”. For the same compound, the “stability of the form under ambient conditions” value in data set [3] (ambient conditions overnight) is reported as “stable”. For the same compound, the “behaviour of the aqueous solution on aging” value in data set [3] (water, aged for two days, recovered solid by XRPD the monohydrate (Form A)) is “a white precipitate was noticed”.
